Assay [1] has as its system Nrf2. The assay is described as follows: Nrf2 activation in ARE reporter assay system, RAW264.7. As to conditions: RAW264.7, 5 μM, 24 hours. The format is cell-based, mouse. As to the method: To construct the reporter plasmid pGL3-mARE3A, a double-stranded oligo DNA with 3 repeats of mouse NQO1-derived ARE (antioxidant response element) to which Nrf2 is believed to bind was constructed and inserted into the MluI-NheI site of the firefly luciferase reporter vector pGL3-promoter vector (available from Promega).
The double-stranded oligo DNA containing AREs was prepared by chemically synthesizing two single-stranded oligo DNAs, 5 ′-[…] G-3′ (SEQ ID NO: 1) and 5′-[…]-3′(SEQ ID NO: 2), and annealing them. Further, DNA sequence analysis confirmed that the product obtained was the plasmid of interest. Next, a mouse macrophage cell line RAW264.7 (available from American Type Culture Collection) was seeded on a 12-well plate (4×10^5 cells/well), 0.8 ml of an RPMI1640 medium (Invitrogen) supplemented with 10% fetal bovine serum (HyClone) and penicillin-streptomycin (100 units/ml and 100 μg/ml, respectively; Sigma) was added, and the plate was incubated at 37° C. in an atmosphere of 5% CO2 overnight. […] The cells were broken using a Dual-Luciferase reporter assay system (Promega) and then firefly luciferase activity and renilla luciferase activity were measured using a luminometer (Luminous CT-9000D, Dia-Iatron). […]
Background: In a reporter assay the amount or activity of a reporter protein is the signal.

Assay [2] deals with CD36. The assay is described as follows: Expression of genes controlled by Nrf2 in RAW264.7: CD36. The format is cell-based, mouse. As to conditions: RAW264.7, 25 μM, 20 hours. The procedure:
(§1) A mouse macrophage cell line RAW264.7 was seeded on a φ60 mm dish (9×10^5 cells), 2 ml of a D-MEM medium (Invitrogen) supplemented with 10% fetal bovine serum (HyClone) and penicillin-streptomycin (100 units/ml and 100 μg/ml, respectively; Sigma) was added, and the dish was incubated at 37° C. in an atmosphere of 5% CO2 for 2 days. The medium was replaced with a fresh medium containing individual samples and incubation was continued for another 20 hours. Then, the total RNA was prepared using TRIzol (Invitrogen) and purified using a RNeasy Mini kit (Qiagen) and an RNase-free DNase set (Qiagen). Further, cDNA was synthesized from 5 μg of the purified total RNA using a Thermo Script RT-PCR system (Invitrogen), and the amount of mRNA expression of various genes was determined using a FastStart DNA Master SYBR Green I kit (Roche) and a Light Cycler (Roche).
(§2) The amount of expression of the various genes was corrected by the amount of expression of the housekeeping gene PO and calculated as a relative expression level (n=2, mean±standard deviation). […]

In assay [3] the test system is heme oxygenase 1 (HO1). The assay is described as follows: Expression of genes controlled by Nrf2 in RAW264.7: HO1. The format is cell-based, mouse. As to conditions: RAW264.7, 25 μM, 20 hours. The procedure:
as §1, §2

Assay [4] has as its system glutathione S-transferase mu1 (GSTM1). Briefly: Expression of genes controlled by Nrf2 in RAW264.7: GSTM1. The format is cell-based, mouse. The following applies: RAW264.7, 25 μM, 20 hours. As to the method:
as §1, §2

Assay [5] has as its system NAD(P)H:quinone oxidoreductase (NQO1). Briefly: Expression of genes controlled by Nrf2 in RAW264.7: NQO1. The format is cell-based, mouse. The following applies: RAW264.7, 25 μM, 20 hours. As to the method:
as §1, §2

The subject of assay [6] is glucose-6-phosphate dehydrogenase 2 (G6PD2). The assay is described as follows: Expression of genes controlled by Nrf2 in RAW264.7: G6PD2. The format is cell-based, mouse. As to conditions: RAW264.7, 25 μM, 20 hours. The procedure: as §1, §2
For assay [7], the system named is glucose-6-phosphate dehydrogenase, X-linked (G6PDX). The assay is described as follows: Expression of genes controlled by Nrf2 in RAW264.7: G6PDX. The format is cell-based, mouse. The following applies: RAW264.7, 25 μM, 20 hours. As to the method:
as §1, §2

Assay [8] relates to mouse macrophage cell line RAW264.7. The assay is described as follows: Suppressive action on cell death by hydrogen peroxide. The format is cell-based. The following applies: RAW264.7, 25 μM, 2 hours. The procedure: A mouse macrophage cell line RAW264.7 (6×10^4 cells/well) was incubated on a 96-well plate in 100 μl of a D-MEM medium (Invitrogen) containing individual samples, 10% fetal bovine serum (HyClone), and penicillin-streptomycin (100 units/ml and 100 μg/ml, respectively; Sigma) at 37° C. in an atmosphere of 5% CO2 overnight. The samples added were isohumulone (IH(F)) and isohumulone (IcH(G)) at a concentration of 25 μM. Hydrogen peroxide (Wako Pure Chemical Industries) was added hereto at a final concentration of 0.8 or 1.0 mM and incubation was continued for another 2 hours. Then, adsorption at 440 nm was measured using a microplate reader (Power Wave 200, Bio-Tek Instruments) with a cell growth reagent WST-1 (Roche Diagnostics). The cell survival rate for each sample was calculated by setting the value without hydrogen peroxide as 100% (n=2, mean±standard variation). As a positive control, 15dPGJ2 (Cayman Chemical) was used.

`CC(C)=CCC(=O)C1(O)C(O)=C(C(=O)CC(C)C)C(=O)C1CC=C(C)C` (stereo not drawn) [IH (F), isohumulone]: the “Nrf2 activation activity (relative luciferase activity)” value in assay [1] is listed as “confirmed the activation”. For the same compound, in assay [2], the “expression of CD36” value is “augmented the expression”. Further, the “expression of HO1” value in assay [3] was “augmented the expression”. Also, the “expression of GSTM1” value in assay [4] is on record as “augmented the expression”. Besides, the “expression of NQO1” value in assay [5] is listed as “augmented the expression”. In addition, the “expression of G6PD2” value in assay [6] was “augmented the expression”. Also, the “expression of G6PDX” value in assay [7] is “augmented the expression”. The “cell death by hydrogen peroxide (cell survival rate)” value in assay [8] (hydrogen peroxide 0.8 mM) and in assay [8] (hydrogen peroxide 1.0 mM) was “suppressed cell death” in each case.

(Values after patent US20070248705A1, “Agents for Activating the Transcription Factor Nrf2 and Foods Having Such Function” (KIRIN BEER KABUSHIKI KAISHA, priority 2004, published 2007).)
